Values of other authors as cited in publication PMC11419783 (Blood, 2024).

How the values were obtained:
[1] = system: KMT2A and NPM1 altered R/R acute leukemia; details: recommended phase 2 dose, NPM1-altered disease
[2] = system: Recombinant mutant MEN1 (MEN1^M327I, MEN1^T349M)
[3] = system: KMT2A-r cell lines engineered to express mutant menin (M327I or T349M); details: M327I or T349M in endogenous MEN1-coding sequence

Structure (SMILES) | complete remission/complete remission with partial recovery of peripheral blood counts [1] [%] | binding affinity to mutant MEN1 [2] | sensitivity of menin-mutant cell lines to antiproliferative effects [3]
CNc1nc(NC2CCN(Cc3ccc4c(cc(C#N)n4C[C@H](C)N4CCN(S(C)(=O)=O)CC4)c3C)CC2)c2cc(CC(F)(F)F)sc2n1 [ziftomenib] | 35 | – | –
CCN(C(=O)c1cc(F)ccc1Oc1cncnc1N1CC2(CCN(C[C@H]3CC[C@H](NS(=O)(=O)CC)CC3)CC2)C1)C(C)C [revumenib] | – | significant reduction in binding affinity | resistant
CNc1nc(NC2CCN(Cc3ccc4c(cc(C#N)n4CC45CC(NC=O)(C4)C5)c3C)CC2)c2cc(CC(F)(F)F)sc2n1 [MI3454] | – | – | resistant
COc1cc(-c2ccc(CN[C@H]3C[C@@H](O)[C@@H](N(C)c4ncnc5sc(CC(F)(F)F)cc45)C3)cc2)nnc1OC [DS-1594] | – | – | resistant
